Legend:
Test in all cases: cells
Type in all cases: functional, cell-based
Conditions in all cases: Homo sapiens
Daudi = test system: Daudi;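 also: growth inhibition of Daudi cells, read out by a viability assay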
Description: SANGER: Inhibition of human Daudi cell growth in a cell viability assay.

BL-41 = test system: BL-41;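 also: growth inhibition of human BL-41 cells, read out with a cell viability assay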
Description: SANGER: Inhibition of human BL-41 cell growth in a cell viability assay.

P31-FUJ = test system: P31-FUJ;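 also: growth inhibition of P31-FUJ cells, read out with a viability assay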
Description: SANGER: Inhibition of human P31-FUJ cell growth in a cell viability assay.

U-698-M = test system: U-698-M
Description: SANGER: Inhibition of human U-698-M cell growth in a cell viability assay.

KMS-12-PE = test system: KMS-12-PE;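 also: growth inhibition of human KMS-12-PE cells, measured with a cell viability assay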
Description: SANGER: Inhibition of human KMS-12-PE cell growth in a cell viability assay.

NCI-H748 = test system: NCI-H748;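 also: growth inhibition of NCI-H748 cells, measured by a cell viability assay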
Description: SANGER: Inhibition of human NCI-H748 cell growth in a cell viability assay.

LB996-RCC = test system: LB996-RCC
Description: SANGER: Inhibition of human LB996-RCC cell growth in a cell viability assay.

NALM-6 = test system: NALM-6;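 also: growth inhibition of NALM-6 cells, read out with a cell viability assay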
Description: SANGER: Inhibition of human NALM-6 cell growth in a cell viability assay.

DMS-153 = test system: DMS-153
Description: SANGER: Inhibition of human DMS-153 cell growth in a cell viability assay.

NCI-H2196 = test system: NCI-H2196;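 also: cell viability assay used as the readout of growth inhibition in NCI-H2196 cells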
Description: SANGER: Inhibition of human NCI-H2196 cell growth in a cell viability assay.

SK-MM-2 = test system: SK-MM-2;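 also: growth inhibition of human SK-MM-2 cells, read out with a cell viability assay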
Description: SANGER: Inhibition of human SK-MM-2 cell growth in a cell viability assay.

NCI-H1436 = test system: NCI-H1436;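 also: growth suppression of human NCI-H1436 cells, determined with a cell viability readout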
Description: SANGER: Inhibition of human NCI-H1436 cell growth in a cell viability assay.

SUP-T1 = test system: SUP-T1;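 also: growth inhibition of human SUP-T1 cells, read out as cell viability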
Description: SANGER: Inhibition of human SUP-T1 cell growth in a cell viability assay.

NB7 = test system: NB7;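 also: growth inhibition of NB7 cells, read out with a cell viability assay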
Description: SANGER: Inhibition of human NB7 cell growth in a cell viability assay.

EHEB = test system: EHEB;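 also: growth inhibition of human EHEB cells, read out with a cell viability assay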
Description: SANGER: Inhibition of human EHEB cell growth in a cell viability assay.

REH = test system: REH;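 also: growth inhibition of REH cells determined with a cell viability read-out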
Description: SANGER: Inhibition of human REH cell growth in a cell viability assay.

CA46 = test system: CA46;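 also: growth inhibition of human CA46 cells, read out by a cell viability assay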
Description: SANGER: Inhibition of human CA46 cell growth in a cell viability assay.

Kasumi 1 = test system: Kasumi 1;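 also: growth inhibition of human Kasumi-1 cells, read out by a cell viability assay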
Description: SANGER: Inhibition of human KASUMI-1 cell growth in a cell viability assay.

SK-MEL-24 = test system: SK-MEL-24;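 also: growth inhibition read out by a cell viability assay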
Description: SANGER: Inhibition of human SK-MEL-24 cell growth in a cell viability assay.

HCT-116 = test system: HCT-116
Description: SANGER: Inhibition of human HCT-116 cell growth in a cell viability assay.

SiHa = test system: SiHa;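 also: Viability-based readout of growth inhibition in SiHa cells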
Description: SANGER: Inhibition of human SiHa cell growth in a cell viability assay.

8305C = test system: 8305C
Description: SANGER: Inhibition of human 8305C cell growth in a cell viability assay.

A-431 = test system: A-431;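 also: growth inhibition of A-431 cells, determined with a cell viability read-out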
Description: SANGER: Inhibition of human A431 cell growth in a cell viability assay.

HT-3 = test system: HT-3;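 also: growth inhibition measured with a cell viability readout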
Description: SANGER: Inhibition of human HT-3 cell growth in a cell viability assay.

HCC38 = test system: HCC38;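 also: cell viability assay on the human HCC38 cell line, with IC50 marking the concentration that inhibits cell growth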
Description: SANGER: Inhibition of human HCC38 cell growth in a cell viability assay.

639-V = test system: 639-V;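 also: growth inhibition of 639-V cells, read out with a cell viability assay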
Description: SANGER: Inhibition of human 639-V cell growth in a cell viability assay.

LK-2 = test system: LK-2;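 also: growth inhibition of LK-2 cells, read out with a viability assay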
Description: SANGER: Inhibition of human LK-2 cell growth in a cell viability assay.

AU565 = test system: AU565;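 also: cell viability assay measuring growth inhibition of human AU565 cells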
Description: SANGER: Inhibition of human AU565 cell growth in a cell viability assay.

SCC-9 = test system: SCC-9;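 also: Read-out is a cell viability assay, with values giving inhibition of cell growth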
Description: SANGER: Inhibition of human SCC-9 cell growth in a cell viability assay.

NCI-H441 = test system: NCI-H441;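 also: growth inhibition of NCI-H441 cells, read out with a cell viability assay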
Description: SANGER: Inhibition of human NCI-H441 cell growth in a cell viability assay.

SW1783 = test system: SW1783;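 also: cell growth inhibition measured with a viability assay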
Description: SANGER: Inhibition of human SW1783 cell growth in a cell viability assay.

DBTRG-05MG = test system: DBTRG-05MG;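 also: cell viability assay measuring growth inhibition of human DBTRG-05MG cells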
Description: SANGER: Inhibition of human DBTRG-05MG cell growth in a cell viability assay.

HLE = test system: HLE;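 also: growth inhibition of human HLE cells, read out by a cell viability assay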
Description: SANGER: Inhibition of human HLE cell growth in a cell viability assay.

U-251 = test system: U-251;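 also: growth inhibition of human U-251 cells, read out through a cell viability assay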
Description: SANGER: Inhibition of human U251 cell growth in a cell viability assay.

KYSE-520 cell line = test system: KYSE-520 cell line;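 also: growth inhibition of human KYSE-520 cells, read out with a viability assay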
Description: SANGER: Inhibition of human KYSE-520 cell growth in a cell viability assay.

MDA-MB-175-VII = test system: MDA-MB-175-VII
H4 = test system: H4
Description: SANGER: Inhibition of human H4 cell growth in a cell viability assay.

COLO-792 = test system: COLO-792
Description: SANGER: Inhibition of human COLO-792 cell growth in a cell viability assay.

T84 = test system: T84;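 also: growth inhibition measured with a cell viability readout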
Description: SANGER: Inhibition of human T84 cell growth in a cell viability assay.

NCI-H596 = test system: NCI-H596;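 also: growth inhibition of NCI-H596 cells, read out with a cell viability assay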
Description: SANGER: Inhibition of human NCI-H596 cell growth in a cell viability assay.

OAW-42 = test system: OAW-42;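 also: growth inhibition of OAW-42 cells, read out with a cell viability assay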
Description: SANGER: Inhibition of human OAW-42 cell growth in a cell viability assay.

NCI-H1792 = test system: NCI-H1792;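 also: growth inhibition of human NCI-H1792 cells, read out as cell viability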
Description: SANGER: Inhibition of human NCI-H1792 cell growth in a cell viability assay.

COR-L105 = test system: COR-L105;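 also: cell growth inhibition determined with a viability assay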
Description: SANGER: Inhibition of human COR-L105 cell growth in a cell viability assay.

HCC1419 = test system: HCC1419;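 also: growth inhibition of human HCC1419 cells, read out as cell viability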
Description: SANGER: Inhibition of human HCC1419 cell growth in a cell viability assay.

BFTC-905 = test system: BFTC-905
Description: SANGER: Inhibition of human BFTC-905 cell growth in a cell viability assay.

J82 = test system: J82;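 also: growth inhibition of J82 cells, read out with a cell viability assay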
Description: SANGER: Inhibition of human J82 cell growth in a cell viability assay.

NCI-H2122 = test system: NCI-H2122;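 also: growth inhibition of the cells, read out with a cell viability assay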
Description: SANGER: Inhibition of human NCI-H2122 cell growth in a cell viability assay.

SW948 = test system: SW948;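 also: growth inhibition of SW948 cells, read out with a cell viability assay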
Description: SANGER: Inhibition of human SW948 cell growth in a cell viability assay.

NCI-H1651 = test system: NCI-H1651;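 also: Read-out is a cell viability assay, with IC50 expressing inhibition of NCI-H1651 cell growth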
Description: SANGER: Inhibition of human NCI-H1651 cell growth in a cell viability assay.

SNU-387 = test system: SNU-387
Description: SANGER: Inhibition of human SNU-387 cell growth in a cell viability assay.

Hs-578T = test system: Hs-578T
Description: SANGER: Inhibition of human Hs-578-T cell growth in a cell viability assay.

KYSE-510 = test system: KYSE-510;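 also: cell viability readout used to measure how strongly growth of the cell line is suppressed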
Description: SANGER: Inhibition of human KYSE-510 cell growth in a cell viability assay.

EFO-21 = test system: EFO-21;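 also: growth inhibition of EFO-21 cells measured with a viability assay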
Description: SANGER: Inhibition of human EFO-21 cell growth in a cell viability assay.

PC-14 = test system: PC-14;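 also: cell viability assay measuring inhibition of PC-14 cell growth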
Description: SANGER: Inhibition of human PC-14 cell growth in a cell viability assay.

KYSE-70 cell line = test system: KYSE-70 cell line;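 also: cell viability assay read-out, with IC50 expressing suppression of KYSE-70 cell growth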
Description: SANGER: Inhibition of human KYSE-70 cell growth in a cell viability assay.

RT-112 = test system: RT-112
Description: SANGER: Inhibition of human RT-112 cell growth in a cell viability assay.

KU-19-19 = test system: KU-19-19
Description: SANGER: Inhibition of human KU-19-19 cell growth in a cell viability assay.

SF-295 = test system: SF-295;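 also: growth inhibition of SF-295 cells, read out with a cell viability assay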
Description: SANGER: Inhibition of human SF295 cell growth in a cell viability assay.

HT-1080 = test system: HT-1080
Description: SANGER: Inhibition of human HT-1080 cell growth in a cell viability assay.

EFO-27 = test system: EFO-27;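 also: growth inhibition of EFO-27 cells, read out with a cell viability assay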
Description: SANGER: Inhibition of human EFO-27 cell growth in a cell viability assay.

RERF-LC-MS = test system: RERF-LC-MS;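 also: growth inhibition of human RERF-LC-MS cells, read out by a cell viability assay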
Description: SANGER: Inhibition of human RERF-LC-MS cell growth in a cell viability assay.

LU-99A = test system: LU-99A;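 also: growth inhibition of LU-99A cells, read out with a cell viability assay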
Description: SANGER: Inhibition of human LU-99A cell growth in a cell viability assay.

MG-63 = test system: MG-63;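 also: growth inhibition of human MG-63 cells, read out with a cell viability assay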
Description: SANGER: Inhibition of human MG-63 cell growth in a cell viability assay.

UACC-893 = test system: UACC-893
Description: SANGER: Inhibition of human UACC-893 cell growth in a cell viability assay.

SMILES: CCNc1cc(N[C@H]2CC[C@@H](O)CC2)nc(Nc2ccc3c(ccn3Cc3ccccc3)c2)n1
- IC50 (Daudi): > 5120 nM
- IC50 (BL-41): > 5120 nM
- IC50 (P31-FUJ): > 5120 nM
- IC50 (U-698-M): > 5120 nM
- IC50 (KMS-12-PE): > 5120 nM
- IC50 (NCI-H748): > 5120 nM
- IC50 (LB996-RCC): > 5120 nM
- IC50 (NALM-6): 4980 nM
- IC50 (DMS-153): > 5120 nM
- IC50 (NCI-H2196): > 5120 nM
- IC50 (SK-MM-2): > 5120 nM
- IC50 (NCI-H1436): > 5120 nM
- IC50 (SUP-T1): > 5120 nM
- IC50 (NB7): > 5120 nM
- IC50 (EHEB): > 5120 nM
- IC50 (REH): > 5120 nM
- IC50 (CA46): > 5120 nM
- IC50 (Kasumi 1): > 5120 nM

SMILES: COc1cc(C)c(Sc2cnc(NC(=O)c3ccc(CNC(C)C(C)(C)C)cc3)s2)cc1C(=O)N1CCN(C(C)=O)CC1 (stereo not given)
- IC50 (Daudi): > 10200 nM
- IC50 (BL-41): > 10200 nM
- IC50 (P31-FUJ): > 10200 nM
- IC50 (U-698-M): > 10200 nM
- IC50 (KMS-12-PE): > 10200 nM
- IC50 (NCI-H748): > 10200 nM
- IC50 (LB996-RCC): > 10200 nM
- IC50 (NALM-6): 10000 nM
- IC50 (DMS-153): > 10200 nM
- IC50 (NCI-H2196): > 10200 nM
- IC50 (SK-MM-2): > 10200 nM
- IC50 (NCI-H1436): > 10200 nM
- IC50 (SUP-T1): 7480 nM
- IC50 (NB7): > 10200 nM
- IC50 (EHEB): > 10200 nM
- IC50 (REH): > 10200 nM
- IC50 (CA46): > 10200 nM
- IC50 (Kasumi 1): > 10200 nM

SMILES: CC(O)(CS(=O)(=O)c1ccc(F)cc1)C(=O)Nc1ccc(C#N)c(C(F)(F)F)c1 (stereo not given) [BICALUTAMIDE]
- IC50 (SK-MEL-24): > 1020 nM
- IC50 (HCT-116): > 1020 nM
- IC50 (Daudi): > 1020 nM
- IC50 (BL-41): > 1020 nM
- IC50 (SiHa): > 1020 nM
- IC50 (8305C): > 1020 nM
- IC50 (A-431): > 1020 nM
- IC50 (P31-FUJ): > 1020 nM
- IC50 (HT-3): 731 nM
- IC50 (HCC38): > 1020 nM
- IC50 (639-V): > 1020 nM
- IC50 (LK-2): > 1020 nM
- IC50 (AU565): > 1020 nM
- IC50 (U-698-M): > 1020 nM
- IC50 (SCC-9): > 1020 nM
- IC50 (NCI-H441): > 1020 nM
- IC50 (SW1783): > 1020 nM
- IC50 (DBTRG-05MG): > 1020 nM
- IC50 (HLE): > 1020 nM
- IC50 (U-251): > 1020 nM
- IC50 (KYSE-520 cell line): > 1020 nM
- IC50 (MDA-MB-175-VII): > 1020 nM
- IC50 (KMS-12-PE): > 1020 nM
- IC50 (NCI-H748): > 1020 nM
- IC50 (LB996-RCC): > 1020 nM
- IC50 (NALM-6): > 1020 nM
- IC50 (H4): > 1020 nM
- IC50 (DMS-153): > 1020 nM
- IC50 (COLO-792): > 1020 nM
- IC50 (T84): > 1020 nM
- IC50 (NCI-H2196): > 1020 nM
- IC50 (NCI-H596): > 1020 nM
- IC50 (OAW-42): > 1020 nM
- IC50 (NCI-H1792): > 1020 nM
- IC50 (COR-L105): > 1020 nM
- IC50 (HCC1419): > 1020 nM
- IC50 (BFTC-905): > 1020 nM
- IC50 (J82): > 1020 nM
- IC50 (NCI-H2122): > 1020 nM
- IC50 (SK-MM-2): > 1020 nM
- IC50 (NCI-H1436): > 1020 nM
- IC50 (SW948): > 1020 nM
- IC50 (NCI-H1651): > 1020 nM
- IC50 (SNU-387): > 1020 nM
- IC50 (Hs-578T): > 1020 nM
- IC50 (SUP-T1): > 1020 nM
- IC50 (KYSE-510): > 1020 nM
- IC50 (EFO-21): > 1020 nM
- IC50 (PC-14): > 1020 nM
- IC50 (KYSE-70 cell line): > 1020 nM
- IC50 (RT-112): > 1020 nM
- IC50 (KU-19-19): > 1020 nM
- IC50 (SF-295): > 1020 nM
- IC50 (HT-1080): > 1020 nM
- IC50 (EFO-27): > 1020 nM
- IC50 (EHEB): > 1020 nM
- IC50 (RERF-LC-MS): > 1020 nM
- IC50 (LU-99A): > 1020 nM
- IC50 (REH): > 1020 nM
- IC50 (CA46): > 1020 nM
- IC50 (MG-63): > 1020 nM
- IC50 (UACC-893): > 1020 nM

SMILES: CCNC(=O)c1noc(-c2cc(C(C)C)c(O)cc2O)c1-c1ccc(CN2CCOCC2)cc1 [LUMINESPIB]
- IC50 (SK-MEL-24): 42.8 nM
- IC50 (HCT-116): 152 nM
- IC50 (Daudi): 33.8 nM
- IC50 (BL-41): 56 nM
- IC50 (SiHa): > 256 nM
- IC50 (8305C): 30.7 nM
- IC50 (A-431): 6.07 nM
- IC50 (P31-FUJ): > 256 nM
- IC50 (HT-3): > 256 nM
- IC50 (HCC38): 37.7 nM
- IC50 (639-V): 4.85 nM
- IC50 (LK-2): 102 nM
- IC50 (AU565): 118 nM
- IC50 (U-698-M): 73.8 nM
- IC50 (SCC-9): 58.7 nM
- IC50 (NCI-H441): 109 nM
- IC50 (SW1783): 5.91 nM
- IC50 (DBTRG-05MG): 29.6 nM
- IC50 (HLE): 60.8 nM
- IC50 (U-251): 47.6 nM
- IC50 (KYSE-520 cell line): 26.1 nM
- IC50 (MDA-MB-175-VII): > 256 nM
- IC50 (KMS-12-PE): 129 nM
- IC50 (NCI-H748): > 256 nM
- IC50 (LB996-RCC): 27.1 nM
- IC50 (NALM-6): 0.842 nM
- IC50 (H4): 13.7 nM
- IC50 (DMS-153): 77.3 nM
- IC50 (COLO-792): 88.5 nM
- IC50 (T84): 13.3 nM
- IC50 (NCI-H2196): 217 nM
- IC50 (NCI-H596): 174 nM
- IC50 (OAW-42): 37.5 nM
- IC50 (NCI-H1792): 45.8 nM
- IC50 (COR-L105): 19.1 nM
- IC50 (HCC1419): 95.4 nM
- IC50 (BFTC-905): 9.38 nM
- IC50 (J82): 30.1 nM
- IC50 (NCI-H2122): 13.8 nM
- IC50 (SK-MM-2): 111 nM
- IC50 (NCI-H1436): 218 nM
- IC50 (SW948): > 256 nM
- IC50 (NCI-H1651): 24.3 nM
- IC50 (SNU-387): 92.2 nM
- IC50 (Hs-578T): > 256 nM
- IC50 (SUP-T1): 67.6 nM
- IC50 (KYSE-510): 14.4 nM
- IC50 (EFO-21): 89.9 nM
- IC50 (PC-14): 19.3 nM
- IC50 (KYSE-70 cell line): 38.1 nM
- IC50 (RT-112): 5.35 nM
- IC50 (KU-19-19): 108 nM
- IC50 (SF-295): 17.2 nM
- IC50 (HT-1080): 22.1 nM
- IC50 (EFO-27): 10.2 nM
- IC50 (EHEB): 25.6 nM
- IC50 (RERF-LC-MS): 134 nM
- IC50 (LU-99A): 72.9 nM
- IC50 (REH): 20.6 nM
- IC50 (CA46): 54.3 nM
- IC50 (MG-63): 18.7 nM
- IC50 (UACC-893): 59 nM
